ChEMBL document CHEMBL1201862, “PubChem BioAssay data set” (2004)
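96-well plates; 48 h exposure; 5 concentrations. Endpoints by linear interpolation between flanking doses. Not reached: highest tested concentration assigned. Abbreviation: GI50, concentration required for 50% inhibition of growth.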 Active and inactive are the calls of the source. Cut-off read from the data, not from the text of the source: active = GI50 up to about 1.1 µM and inactive = higher.

What was measured:
Assay in all cases: NCI tumour cell line growth inhibition, 48 h
A498 = test system: A498
ACHN = test system: ACHN
BT-549 = test system: BT-549
CCRF-CEM = test system: CCRF-CEM
DU-145 = test system: DU-145
EKVX = test system: EKVX
HCC 2998 = test system: HCC 2998
HCT-116 = test system: HCT-116
HCT-15 = test system: HCT-15
HL-60 = test system: HL-60
HOP-62 = test system: HOP-62
HT-29 = test system: HT-29
Hs-578T = test system: Hs-578T
K562 = test system: K562
KM12 = test system: KM12
LOX IMVI = test system: LOX IMVI
M14 = test system: M14
MCF7 = test system: MCF7
MDA-MB-231 = test system: MDA-MB-231
MDA-MB-435 = test system: MDA-MB-435
MDA-N = test system: MDA-N
MOLT-4 = test system: MOLT-4
Malme-3M = test system: Malme-3M
NCI-H226 = test system: NCI-H226
NCI-H23 = test system: NCI-H23
NCI-H460 = test system: NCI-H460
NCI-H522 = test system: NCI-H522
OVCAR-3 = test system: OVCAR-3
OVCAR-5 = test system: OVCAR-5
RPMI-8226 = test system: RPMI-8226
RXF 393 = test system: RXF 393
SF-268 = test system: SF-268
SF-539 = test system: SF-539
SK-MEL-28 = test system: SK-MEL-28
SK-MEL-2 = test system: SK-MEL-2
SK-OV-3 = test system: SK-OV-3
SNB-19 = test system: SNB-19
SNB-75 = test system: SNB-75
SR = test system: SR
T47D = test system: T47D
TK-10 = test system: TK-10
U-251 = test system: U-251
UACC-257 = test system: UACC-257
UACC-62 = test system: UACC-62
UO-31 = test system: UO-31
786-0 = test system: 786-0
A549 = test system: A549
CAKI-1 = test system: CAKI-1
COLO 205 = test system: COLO 205
HOP-92 = test system: HOP-92
IGROV-1 = test system: IGROV-1
NCI/ADR-RES = test system: NCI/ADR-RES
OVCAR-4 = test system: OVCAR-4
OVCAR-8 = test system: OVCAR-8
PC-3 = test system: PC-3
SF-295 = test system: SF-295
SK-MEL-5 = test system: SK-MEL-5
SN12C = test system: SN12C
SW-620 = test system: SW-620

Question: CCOC(=O)NC(Nc1ccc(Cl)cn1)(C(F)(F)F)C(F)(F)F was tested. Which GI50 (A498) did it give?
Answer: > 100 µM (inactive)

Question: What about the GI50 (ACHN) of the same compound?
Answer: > 100 µM (inactive)

Question: What about the GI50 (BT-549) of the same compound?
Answer: > 100 µM (inactive)

Question: And the GI50 (CCRF-CEM)?
Answer: > 100 µM (inactive)

Question: What about the GI50 (DU-145) of the same compound?
Answer: > 100 µM (inactive)

Question: And the GI50 (EKVX)?
Answer: > 100 µM (inactive)

Question: And the GI50 (HCC 2998)?
Answer: > 100 µM (inactive)

Question: And the GI50 (HCT-116)?
Answer: > 100 µM (inactive)

Question: What about the GI50 (HCT-15) of the same compound?
Answer: > 100 µM

Question: And the GI50 (HL-60)?
Answer: > 100 µM (inactive)

Question: And the GI50 (HOP-62)?
Answer: > 100 µM (inactive)

Question: What about the GI50 (HT-29) of the same compound?
Answer: > 100 µM (inactive)

Question: What about the GI50 (Hs-578T) of the same compound?
Answer: > 100 µM (inactive)

Question: And the GI50 (K562)?
Answer: > 100 µM (inactive)

Question: What about the GI50 (KM12) of the same compound?
Answer: > 100 µM (inactive)

Question: What about the GI50 (LOX IMVI) of the same compound?
Answer: > 100 µM (inactive)

Question: And the GI50 (M14)?
Answer: > 100 µM (inactive)

Question: And the GI50 (MCF7)?
Answer: > 100 µM (inactive)

Question: And the GI50 (MDA-MB-231)?
Answer: > 100 µM (inactive)

Question: What about the GI50 (MDA-MB-435) of the same compound?
Answer: > 100 µM (inactive)

Question: What about the GI50 (MDA-N) of the same compound?
Answer: > 100 µM (inactive)

Question: And the GI50 (MOLT-4)?
Answer: > 100 µM (inactive)

Question: What about the GI50 (Malme-3M) of the same compound?
Answer: > 100 µM (inactive)

Question: And the GI50 (NCI-H226)?
Answer: > 100 µM (inactive)

Question: And the GI50 (NCI-H23)?
Answer: > 100 µM (inactive)

Question: What about the GI50 (NCI-H460) of the same compound?
Answer: > 100 µM (inactive)

Question: What about the GI50 (NCI-H522) of the same compound?
Answer: > 100 µM (inactive)

Question: And the GI50 (OVCAR-3)?
Answer: > 100 µM (inactive)

Question: And the GI50 (OVCAR-5)?
Answer: > 100 µM (inactive)

Question: And the GI50 (RPMI-8226)?
Answer: > 100 µM (inactive)

Question: What about the GI50 (RXF 393) of the same compound?
Answer: 97.5 µM (inactive)

Question: And the GI50 (SF-268)?
Answer: > 100 µM (inactive)

Question: And the GI50 (SF-539)?
Answer: > 100 µM (inactive)

Question: And the GI50 (SK-MEL-28)?
Answer: > 100 µM (inactive)

Question: What about the GI50 (SK-MEL-2) of the same compound?
Answer: > 100 µM (inactive)

Question: And the GI50 (SK-OV-3)?
Answer: > 100 µM (inactive)

Question: And the GI50 (SNB-19)?
Answer: > 100 µM (inactive)

Question: What about the GI50 (SNB-75) of the same compound?
Answer: > 100 µM (inactive)

Question: And the GI50 (SR)?
Answer: > 100 µM (inactive)

Question: What about the GI50 (T47D) of the same compound?
Answer: > 100 µM (inactive)

Question: What about the GI50 (TK-10) of the same compound?
Answer: > 100 µM (inactive)

Question: What about the GI50 (U-251) of the same compound?
Answer: > 100 µM (inactive)

Question: And the GI50 (UACC-257)?
Answer: > 100 µM (inactive)

Question: What about the GI50 (UACC-62) of the same compound?
Answer: > 100 µM (inactive)

Question: What about the GI50 (UO-31) of the same compound?
Answer: 41.4 µM (inactive)

Question: What does the source list for CS(=O)(=O)O.[Ag]?
Answer: GI50 (786-0): 16.3 µM (inactive); GI50 (A498): 20.8 µM (inactive); GI50 (A549): 10.3 µM (inactive); GI50 (ACHN): 4.53 µM (inactive); GI50 (BT-549): 20.8 µM (inactive); GI50 (CAKI-1): 17.8 µM (inactive); GI50 (CCRF-CEM): 2.46 µM (inactive); GI50 (COLO 205): 2.16 µM (inactive); GI50 (DU-145): 17.1 µM (inactive); GI50 (EKVX): 21.9 µM (inactive); GI50 (HCC 2998): 14.2 µM (inactive); GI50 (HCT-116): 5.04 µM (inactive); GI50 (HCT-15): 18.7 µM; GI50 (HL-60): 2.79 µM (inactive); GI50 (HOP-62): 25.4 µM (inactive); GI50 (HOP-92): 2.14 µM (inactive); GI50 (HT-29): 19.3 µM (inactive); GI50 (Hs-578T): 37.7 µM (inactive); GI50 (IGROV-1): 1.6 µM (inactive); GI50 (K562): 2.23 µM (inactive); GI50 (KM12): 29 µM (inactive); GI50 (LOX IMVI): 3.09 µM (inactive); GI50 (M14): 3.17 µM (inactive); GI50 (MCF7): 4.03 µM (inactive); GI50 (MDA-MB-231): 21.3 µM (inactive); GI50 (MDA-MB-435): 2.91 µM (inactive); GI50 (MDA-N): 7.1 µM (inactive); GI50 (MOLT-4): 2.32 µM (inactive); GI50 (Malme-3M): 1.92 µM (inactive); GI50 (NCI-H226): 25.1 µM (inactive); GI50 (NCI-H23): 23.2 µM (inactive); GI50 (NCI-H460): 20.2 µM (inactive); GI50 (NCI-H522): 1.92 µM (inactive); GI50 (NCI/ADR-RES): 29.8 µM (inactive); GI50 (OVCAR-3): 23.8 µM (inactive); GI50 (OVCAR-4): 2.33 µM (inactive); GI50 (OVCAR-5): 19.3 µM (inactive); GI50 (OVCAR-8): 31.6 µM (inactive); GI50 (PC-3): 14.2 µM (inactive); GI50 (RPMI-8226): 2.49 µM (inactive); GI50 (RXF 393): 18.8 µM (inactive); GI50 (SF-268): 16 µM (inactive); GI50 (SF-295): 34.2 µM (inactive); GI50 (SF-539): 17.3 µM (inactive); GI50 (SK-MEL-28): 18.4 µM (inactive); GI50 (SK-MEL-2): 15.4 µM (inactive); GI50 (SK-MEL-5): 5.3 µM (inactive); GI50 (SK-OV-3): 18.3 µM (inactive); GI50 (SN12C): 19.1 µM (inactive); GI50 (SNB-19): 29.3 µM (inactive); GI50 (SNB-75): 12.3 µM (inactive); GI50 (SW-620): 3.01 µM (inactive); GI50 (T47D): 2.15 µM (inactive); GI50 (TK-10): 2.42 µM (inactive); GI50 (U-251): 16.3 µM (inactive); GI50 (UACC-257): 10.2 µM (inactive); GI50 (UACC-62): 17.9 µM (inactive); GI50 (UO-31): 1.78 µM (inactive)

Question: Which results are given for O=C1/C(=C\c2ccc(O)cc2)CCC/C1=C/c1ccc(Cl)c(Cl)c1?
Answer: GI50 (786-0): 2.43 µM (inactive); GI50 (A498): 3.39 µM (inactive); GI50 (A549): 3.78 µM (inactive); GI50 (ACHN): 3.52 µM (inactive); GI50 (BT-549): 2.77 µM (inactive); GI50 (CAKI-1): 4.82 µM (inactive); GI50 (CCRF-CEM): 0.374 µM (active); GI50 (COLO 205): 1.76 µM (inactive); GI50 (DU-145): 3.19 µM (inactive); GI50 (EKVX): 7.69 µM (inactive); GI50 (HCC 2998): 2.31 µM (inactive); GI50 (HCT-116): 1.89 µM (inactive); GI50 (HCT-15): 2.96 µM; GI50 (HL-60): 1.96 µM (inactive); GI50 (HOP-62): 4.17 µM (inactive); GI50 (HOP-92): 15.6 µM (inactive); GI50 (HT-29): 1.63 µM (inactive); GI50 (Hs-578T): 5.65 µM (inactive); GI50 (IGROV-1): 0.331 µM (active); GI50 (K562): 2.67 µM (inactive); GI50 (KM12): 1.7 µM (inactive); GI50 (LOX IMVI): 1.47 µM (inactive); GI50 (M14): 2.13 µM (inactive); GI50 (MCF7): 2.69 µM (inactive); GI50 (MDA-MB-231): 3.38 µM (inactive); GI50 (MDA-MB-435): 3.15 µM (inactive); GI50 (MDA-N): 2.48 µM (inactive); GI50 (MOLT-4): 1.82 µM (inactive); GI50 (Malme-3M): 5.3 µM (inactive); GI50 (NCI-H226): 3.96 µM (inactive); GI50 (NCI-H23): 3.13 µM (inactive); GI50 (NCI/ADR-RES): 2.03 µM (inactive); GI50 (OVCAR-3): 3.67 µM (inactive); GI50 (OVCAR-4): 2.32 µM (inactive); GI50 (OVCAR-5): 18.8 µM (inactive); GI50 (PC-3): 3.57 µM (inactive); GI50 (RPMI-8226): 2.44 µM (inactive); GI50 (RXF 393): 2.38 µM (inactive); GI50 (SF-268): 3.35 µM (inactive); GI50 (SF-295): 2.65 µM (inactive); GI50 (SK-MEL-28): 4.1 µM (inactive); GI50 (SK-MEL-2): 18.6 µM (inactive); GI50 (SK-MEL-5): 7.11 µM (inactive); GI50 (SK-OV-3): 4.37 µM (inactive); GI50 (SN12C): 2.73 µM (inactive); GI50 (SNB-19): 5.51 µM (inactive); GI50 (SNB-75): 2.72 µM (inactive); GI50 (SW-620): 3.37 µM (inactive); GI50 (T47D): 11.5 µM (inactive); GI50 (TK-10): 2.98 µM (inactive); GI50 (U-251): 4.36 µM (inactive); GI50 (UACC-257): 4.19 µM (inactive); GI50 (UACC-62): 2.28 µM (inactive); GI50 (UO-31): 2.75 µM (inactive)
